Data taken from ChEMBL document CHEMBL4602683, “The Isolation of Pyrroloformamide Congeners and Characterization of Their Biosynthetic Gene Cluster” (J Nat Prod, 2020).
Converted amounts (≈) assume the structure as drawn.

Experiments:
A549 = test: Cytotoxicity against human A549 cells by CCK8 assay; type: functional, cell-based
Caco-2 = test: Cytotoxicity against human Caco2 cells by CCK8 assay; type: functional, cell-based
Staphylococcus aureus [1] = test: Antibacterial activity against Staphylococcus aureus ATCC 29213 by resazurin dye based microdilution method; type: functional
Staphylococcus aureus [2] = test: Antibacterial activity against Methicillin resistant Staphylococcus aureus by resazurin dye based microdilution method; type: functional
Escherichia coli = test: Antibacterial activity against Escherichia coli by resazurin dye based microdilution method; type: functional
Klebsiella pneumoniae = test: Antibacterial activity against Klebsiella pneumoniae by resazurin dye based microdilution method; type: functional
PC-3M = test: Cytotoxicity against human PC3M cells after 72 hrs by MTT assay; type: functional, cell-based

SMILES | IC50 (A549) [µM] | IC50 (Caco-2) [µM] | MIC (Staphylococcus aureus [1]) [µg/mL] | MIC (Staphylococcus aureus [2]) [µg/mL] | MIC (Escherichia coli) [µg/mL] | MIC (Klebsiella pneumoniae) [µg/mL] | IC50 (PC-3M) [nM]
CN(C=O)C1=C2C(=CSS2(=O)=O)NC1=O | > 64 | > 64 | 8 (≈ 32.5 µM) | 8 (≈ 32.5 µM) | 32 (≈ 130 µM) | 64 (≈ 260 µM) | –
CN(C=O)c1c2sscc-2[nH]c1=O | 1.34 | 0.57 | 0.5 (≈ 2.33 µM) | 0.5 (≈ 2.33 µM) | 0.5 (≈ 2.33 µM) | 0.5 (≈ 2.33 µM) | 1700
O=CNc1c2sscc-2[nH]c1=O | – | – | 4 (≈ 20 µM) | 2 (≈ 9.99 µM) | 1 (≈ 4.99 µM) | 1 (≈ 4.99 µM) | –
CN(C=O)C1=C2SCSC=C2NC1=O | > 64 | > 64 | > 64 | > 64 | > 64 | > 64 | –
CC(=O)NC[C@H]1CN(c2ccc(N3CCOCC3)c(F)c2)C(=O)O1 [LINEZOLID] | – | – | 1 (≈ 2.96 µM) | 1 (≈ 2.96 µM) | > 64 | > 64 | –
